Literature values in patent US8889745B2 (Nanunanu Ltd., priority 2006, dated 2014).
Values after ≈ are worked out from the molar mass of the structure shown.

## C[C@@H]1C[C@H]2[C@@H]3CCC4=CC(=O)C=C[C@]4(C)[C@@]3(F)[C@@H](O)C[C@]2(C)[C@@]1(O)C(=O)CO [dexamethasone]
  aqueous solubility: 88 µg/mL (≈ 224 µM)
